Results taken from patent publication US20260224536A1, “ARYL HETEROCYCLIC KV1.3 INHIBITOR, PREPARATION METHOD THEREFOR, AND USE THEREOF” (SHANGHAI SHENSHI WISE TECHNOLOGY CO., LTD., priority 2022, published 2026).

Each molecule was assayed against Kv1.3 potassium channel (Homo sapiens, UniProt P22001) (assay: Whole-cell patch-clamp assay for inhibitory activity against Kv1.3 (peak current)). Conditions: HEK293 cells stably expressing Kv1.3, patch-clamp.
Assay type: cell-based
Source text: The voltage stimulation protocol for recording whole-cell Kv1.X potassium currents via patch-clamp was as follows. After formation of a whole-cell seal, the cell membrane voltage was clamped at −80 mV, and then stepped to +40 mV for 500 ms. […] The test data were acquired by EPC-10 amplifier (HEKA) and stored in the PatchMaster (HEKA) software. Recording electrodes were drawn from capillary glass tubes using a microelectrode puller. Under an inverted microscope, the recording electrode was brought into contact with the cell surface by manipulating a microelectrode manipulator. Negative-pressure suction was applied to form a GΩ seal. After formation of the […], a rapid capacitance compensation was given. The application of negative pressure was continued to rupture the cell membrane, forming a whole-cell recording mode. Then, a slow capacitance compensation was given, and the membrane capacitance and series resistance were recorded. No current leakage compensation was provided. Once the whole-cell recorded Kv1.X current stabilized, drug administration was started. Each drug concentration was allowed to act for 5 min (or until the current reached a steady state) before the next concentration was tested. Multiple concentrations were tested for each test compound. The cover glass plated with the cells was placed in a recording bath of the inverted microscope. The test compound and the compound-free extracellular fluid were allowed to sequentially flow through the recording bath from low concentrations to high concentrations using a gravity perfusion method, thus acting on the cells, and liquid exchange was performed using a vacuum pump during recording. For each cell, the current detected in the compound-free extracellular liquid was used as its own control group. The test was independently repeated three times using at least three cells per concentration. All electrophysiological experiments were performed at room temperature. […] First, the peak current after the action of each drug concentration and the peak current of the blank control were standardized and then the inhibition rate corresponding to each drug concentration was calculated Subsequently, the mean, standard deviation (SD), and standard error (SE) were calculated for the inhibition rate corresponding to each concentration. Using the above equation, the IC50 value for each compound was calculated, and the dose-dependent effect was subjected to non-linear fitting, where IC50 is the half maximal inhibitory concentration. The IC50 calculation and the curve fitting were performed using the GraphPad Prism software.

Chain of Kv1.3 potassium channel (P22001 whole entry): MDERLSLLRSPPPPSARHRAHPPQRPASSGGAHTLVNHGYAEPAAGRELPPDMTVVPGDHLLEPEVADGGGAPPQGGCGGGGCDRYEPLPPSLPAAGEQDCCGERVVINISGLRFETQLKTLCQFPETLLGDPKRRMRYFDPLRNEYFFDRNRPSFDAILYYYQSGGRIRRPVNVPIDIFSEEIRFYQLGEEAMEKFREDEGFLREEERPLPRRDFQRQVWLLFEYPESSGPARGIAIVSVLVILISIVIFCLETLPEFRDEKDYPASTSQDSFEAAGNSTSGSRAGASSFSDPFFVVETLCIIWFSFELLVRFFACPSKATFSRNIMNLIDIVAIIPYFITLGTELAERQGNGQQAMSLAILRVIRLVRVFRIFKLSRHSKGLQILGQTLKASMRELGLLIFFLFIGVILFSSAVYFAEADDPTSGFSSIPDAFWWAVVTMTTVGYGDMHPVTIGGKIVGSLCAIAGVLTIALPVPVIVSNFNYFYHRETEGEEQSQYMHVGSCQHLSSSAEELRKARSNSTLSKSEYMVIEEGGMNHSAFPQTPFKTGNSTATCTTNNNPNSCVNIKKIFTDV

`COC(=O)N1CCC(c2nnc3n2C[C@H](c2c(O)ccc(Cl)c2Cl)C3)C1` (single isomer, unassigned) [Example 50] and `CC(=O)N1CCC(c2nnc3n2C[C@H](c2c(O)ccc(Cl)c2Cl)C3)CC1` [Example 37, (S)-1-(4-(6-(2,3-Dichloro-6-hydroxyphenyl)-6,7-dihydro-5H-pyrrolo[2,1-c][1,2,4]triazol-3-yl)piperidin-1-yl)ethan-1-one] are within 1.5-fold of each other in IC50: 10.9 nM for the first, 12.7 nM for the second.

`O=C1CC(c2nnc3n2C[C@H](c2c(O)ccc(Cl)c2Cl)C3)CN1` (single isomer, unassigned) [Example 53] and `O=C1CC(c2nnc3n2C[C@H](c2c(O)ccc(Cl)c2Cl)C3)CCN1` (single isomer, unassigned) [Example 56] are within 1.5-fold of each other in IC50: 15 nM for the first, 20.6 nM for the second.

First: O=C1CC(c2nnc3n2C[C@H](c2c(O)ccc(Cl)c2Cl)C3)CCN1 (single isomer, unassigned) [Example 57]
Second: Oc1ccc(Cl)c(Cl)c1[C@@H]1Cc2nnc(C3CCNCC3)n2C1 [Example 35, (S)-3,4-Dichloro-2-(3-(piperidin-4-yl)-6,7-dihydro-5H-pyrrolo[2,1-c][1,2,4]triazol-6-yl)phenol]
The IC50 of the first is 3.6-fold higher: 11.4 nM for the first, 3.15 nM for the second.

First: Oc1ccc(Cl)c(Cl)c1[C@@H]1Cc2nnc(C3CCCNC3)n2C1 (single isomer, unassigned) [Example 58]
Second: Oc1ccc(Cl)c(Cl)c1[C@@H]1Cc2nnc(C3CCCOC3)n2C1 (single isomer, unassigned) [Example 69]
The IC50 of the first is 4.4-fold lower: 12 nM for the first, 53 nM for the second.

`CC1(c2nnc3n2C[C@H](c2c(O)ccc(Cl)c2Cl)C3)CCOC1` (single isomer, unassigned) [Example 64] and `Oc1ccc(Cl)c(Cl)c1[C@@H]1Cc2nnc(C3CCOCC3)n2C1` [Example 33, (S)-3,4-Dichloro-2-(3-(tetrahydro-2H-pyran-4-yl)-6,7-dihydro-5H-pyrrolo[2,1-c][1,2,4]triazol-6-yl)phenol] are within 1.5-fold of each other in IC50: 42.8 nM for the first, 47.8 nM for the second.

Going from `Oc1ccc(Cl)c(Cl)c1C1Cc2nnc(C3CCN(C4CCCCC4)CC3)n2C1` (single isomer, unassigned) [Example 79] to `Oc1ccc(Cl)c(Cl)c1C1Cc2nnc(C3CCN(C4CC4)CC3)n2C1` (stereo not shown) [Example 11, 3,4-Dichloro-2-(3-(1-cyclopropylpiperidin-4-yl)-6,7-dihydro-5H-pyrrolo[2,1-c][1,2,4]triazol-6-yl)phenol], the IC50 falls from 14.8 nM to 9.24 nM (1.6-fold). The second is the more potent here.

`CC(C)N1CCC(c2cnc3n2CC(c2c(O)ccc(Cl)c2Cl)C3)CC1` (single isomer, unassigned) [Example 94] and `CC(C)N1CCC(c2nnc3n2C[C@H](c2c(O)ccc(Cl)c2Cl)C3)CC1` [Example 36, (S)-3,4-Dichloro-2-(3-(1-isopropylpiperidin-4-yl)-6,7-dihydro-5H-pyrrolo[2,1-c][1,2,4]triazol-6-yl)phenol] are within 1.5-fold of each other in IC50: 6.09 nM for the first, 6.8 nM for the second.

`CCn1ncc2c1CC(c1c(O)ccc(Cl)c1Cl)C2` (single isomer, unassigned) [Example 118] and `CCc1nnc2n1C[C@H](c1c(O)ccc(Cl)c1Cl)C2` [Example 34, (S)-3,4-Dichloro-2-(3-ethyl-6,7-dihydro-5H-pyrrolo[2,1-c][1,2,4]triazol-6-yl)phenol] are within 1.5-fold of each other in IC50: 14.6 nM for the first, 9.75 nM for the second.

Compared with `OCc1nnc2n1C[C@@H](c1c(O)ccc(Cl)c1Cl)C2` [Example 1, (R)-3,4-Dichloro-2-(3-(hydroxymethyl)-6,7-dihydro-5H-pyrrolo[2,1-c][1,2,4]triazol-6-yl)phenol], `OCCc1nnc2n1C[C@H](c1c(O)ccc(Cl)c1Cl)C2` [Example 32, (S)-3,4-Dichloro-2-(3-(2-hydroxyethyl)-6,7-dihydro-5H-pyrrolo[2,1-c][1,2,4]triazol-6-yl)phenol] is 7.3-fold lower in IC50: 94.3 nM for the first, 13 nM for the second.

First: CC(C)(C#N)c1nnc2n1CC(c1c(O)ccc(Cl)c1Cl)C2 (stereo not shown) [Example 4, 2-(6-(2,3-Dichloro-6-hydroxyphenyl)-6,7-dihydro-5H-pyrrolo[2,1-c][1,2,4]triazol-3-yl)-2-methylpropanenitrile]
Second: CC(C)(C)c1nnc2n1CC(c1c(O)ccc(Cl)c1Cl)C2 (stereo not shown) [Example 16, 2-(3-(tert-Butyl)-6,7-dihydro-5H-pyrrolo[2,1-c][1,2,4]triazol-6-yl)-3,4-dichlorophenol]
The IC50 of the first is 1.7-fold lower: 45.2 nM for the first, 74.7 nM for the second.

`Oc1ccc(Cl)c(Cl)c1C1Cc2nnc(C3CCCCC3)n2C1` (stereo not shown) [Example 5, 3,4-Dichloro-2-(3-cyclohexyl-6,7-dihydro-5H-pyrrolo[2,1-c][1,2,4]triazol-6-yl)phenol] and `O=C(C1CC1)N1CCC(c2nnc3n2CC(c2c(O)ccc(Cl)c2Cl)C3)CC1` (stereo not shown) [Example 10, Cyclopropyl(4-(6-(2,3-dichloro-6-hydroxyphenyl)-6,7-dihydro-5H-pyrrolo[2,1-c][1,2,4]triazol-3-yl)piperidin-1-yl)methanone] are within 1.5-fold of each other in IC50: 39 nM for the first, 27.7 nM for the second.

`N#Cc1ccc(-c2nnc3n2CC(c2c(O)ccc(Cl)c2Cl)C3)cc1` (stereo not shown) [Example 6, 4-(6-(2,3-dichloro-6-hydroxyphenyl)-6,7-dihydro-5H-pyrrolo[2,1-c][1,2,4]triazol-3-yl)benzonitrile] and `N#Cc1cccc(-c2nnc3n2CC(c2c(O)ccc(Cl)c2Cl)C3)c1` (stereo not shown) [Example 9, 3-(6-(2,3-dichloro-6-hydroxyphenyl)-6,7-dihydro-5H-pyrrolo[2,1-c][1,2,4]triazol-3-yl)benzonitrile] are within 1.5-fold of each other in IC50: 13.2 nM for the first, 17.1 nM for the second.

Compared with `Oc1ccc(Cl)c(Cl)c1C1Cc2nnc(-c3ccc4[nH]ncc4c3)n2C1` (stereo not shown) [Example 7, 2-(3-(1H-Indazol-5-yl)-6,7-dihydro-5H-pyrrolo[2,1-c][1,2,4]triazol-6-yl)-3,4-dichlorophenol], `Cn1cc(-c2nnc3n2C[C@H](c2c(O)ccc(Cl)c2Cl)C3)ccc1=O` [Example 38, (S)-5-(6-(2,3-Dichloro-6-hydroxyphenyl)-6,7-dihydro-5H-pyrrolo[2,1-c][1,2,4]triazol-3-yl)-1-methylpyridin-2(1H)-one] is 3.6-fold higher in IC50: 12 nM for the first, 43.1 nM for the second. The first is the more potent here.

First: CC(C)c1nnc2n1CC(c1c(O)ccc(Cl)c1Cl)C2 (stereo not shown) [Example 8, 3,4-Dichloro-2-(3-isopropyl-6,7-dihydro-5H-pyrrolo[2,1-c][1,2,4]triazol-6-yl)phenol]
Second: Oc1ccc(Cl)c(Cl)c1C1Cc2nnc(C(F)F)n2C1 (stereo not shown) [Example 25, 3,4-Dichloro-2-(3-(difluoromethyl)-6,7-dihydro-5H-pyrrolo[2,1-c][1,2,4]triazol-6-yl)phenol]
The IC50 of the first is 1.9-fold higher: 20.6 nM for the first, 11.1 nM for the second. The second is the more potent here.

Going from `O=C(c1nnc2n1CC(c1c(O)ccc(Cl)c1Cl)C2)N1CCC(O)C1` (stereo not shown) [Example 12, (6-(2,3-Dichloro-6-hydroxyphenyl)-6,7-dihydro-5H-pyrrolo[2,1-c][1,2,4]triazol-3-yl)(3-hydroxypyrrolidin-1-yl)methanone] to `O=C(c1nnc2n1CC(c1c(O)ccc(Cl)c1Cl)C2)N1CCNCC1` (stereo not shown) [Example 13, (6-(2,3-Dichloro-6-hydroxyphenyl)-6,7-dihydro-5H-pyrrolo[2,1-c][1,2,4]triazol-3-yl)(piperazin-1-yl)methanone], the IC50 falls from 30.9 nM to 5.09 nM (6.1-fold). The second is the more potent here.

First: CC(C)N1CCN(C(=O)c2nnc3n2CC(c2c(O)ccc(Cl)c2Cl)C3)CC1 (stereo not shown) [Example 14, (6-(2,3-Dichloro-6-hydroxyphenyl)-6,7-dihydro-5H-pyrrolo[2,1-c][1,2,4]triazol-3-yl)(4-isopropylpiperazin-1-yl)methanone]
Second: O=C(c1nnc2n1CC(c1c(O)ccc(Cl)c1Cl)C2)N1CCOCC1 (stereo not shown) [Example 21, (6-(2,3-Dichloro-6-hydroxyphenyl)-6,7-dihydro-5H-pyrrolo[2,1-c][1,2,4]triazol-3-yl)(morpholino)methanone]
The IC50 of the first is 2.5-fold lower: 19.6 nM for the first, 48.6 nM for the second. The first is the more potent here.

Going from `Oc1ccc(Cl)c(Cl)c1C1Cc2nnc(CC(F)(F)F)n2C1` (stereo not shown) [Example 15, 3,4-Dichloro-2-(3-(2,2,2-trifluoroethyl)-6,7-dihydro-5H-pyrrolo[2,1-c][1,2,4]triazol-6-yl)phenol] to `Oc1ccc(Cl)c(Cl)c1C1Cc2nnc(CN3CCC(O)C3)n2C1` (stereo not shown) [Example 19, 1-((6-(2,3-Dichloro-6-hydroxyphenyl)-6,7-dihydro-5H-pyrrolo[2,1-c][1,2,4]triazol-3-yl)methyl)pyrrolidin-3-ol], the IC50 rises from 26.8 nM to 46.3 nM (1.7-fold). The first is the more potent here.

Going from `CC(C)N1CCC(Cc2nnc3n2CC(c2c(O)ccc(Cl)c2Cl)C3)CC1` (stereo not shown) [Example 18, 3,4-Dichloro-2-(3-((1-isopropylpiperidin-4-yl)methyl)-6,7-dihydro-5H-pyrrolo[2,1-c][1,2,4]triazol-6-yl)phenol] to `Oc1ccc(Cl)c(Cl)c1C1Cc2nnc(CN3CCOCC3)n2C1` (stereo not shown) [Example 20, 3,4-Dichloro-2-(3-(morpholinomethyl)-6,7-dihydro-5H-pyrrolo[2,1-c][1,2,4]triazol-6-yl)phenol], the IC50 rises from 5.76 nM to 35.3 nM (6.1-fold).

Molecule `Oc1ccc(Cl)c(Cl)c1C1Cc2nnc(C3CCN(C4CCOCC4)CC3)n2C1` (stereo not shown) [Example 22, 3,4-Dichloro-2-(3-(1-(tetrahydro-2H-pyran-4-yl)piperidin-4-yl)-6,7-dihydro-5H-pyrrolo[2,1-c][1,2,4]triazol-6-yl)phenol] has an IC50 of 13.6 nM.
